These results are taken from US9351974B2, “Substituted pteridinones for the treatment of cancer” (OSI Pharmaceuticals, LLC, priority 2011, dated 2016).

Assay [1] deals with RSK1-4. To be noted: G. P. Sapkota et al., Biochem J., 401, 29-38 (2007); cited from earlier work.
The target of assay [2] is T1, His-tagged full length RSK1 (RPS6KA1) (Homo sapiens, UniProt Q15418).
T1 construct: His-tagged full length RSK1 (RPS6KA1, Millipore 14-509); His; purchased Millipore 14-509
Kind of assay: RSK1 Omnia Assay for compound IC50 determination. The format is biochemical. To be noted: ATP 15 μM, n=2, read-out: Mean RSK1 Biochem IC50. Here is the method:
RSK1 & RSK2 Omnia Assay Protocol for Compound IC50 Determination
The Omnia Assay (Invitrogen) has been optimized for His-tagged full length RSK1 (RPS6KA1, Millipore 14-509) and for His-tagged full-length RSK2 (RPS6KA3, Invitrogen PV3323). In this assay system, Omnia ST Peptide 6 (Invitrogen KNZ1061) functions as a substrate for RSK1 or RSK2. Phosphorylation of this SOX-containing peptide results in an increase in fluorescence at 485 nm upon excitation at 360 nm.
Assays are carried out in 384-well OptiPlates (Perkin Elmer 6007290) in a total volume of 20 μL containing RSK1 ([…]) or RSK2 ([…]), Omnia ST Peptide 6 (5 μM), ATP (15 μM, Km=16.3 μM), and test compound (variable) in RSK assay buffer (50 mM HEPES, pH 7.5, 10 mM MgCl2, 0.01% Tween-20, 1% glycerol, 1 mM DTT, 1 mM EGTA, 0.01% BSA) with 1% DMSO.
IC50s for test compounds are typically determined using an 11-point three-fold serial dilution with a final assay concentration ranging either from 170 μM to […] or from 17 μM to […]. All compound concentrations are assayed in duplicate. Initial compound dilutions are prepared at 100× concentration in 100% DMSO from a 10 mM stock solution. Compounds are further diluted 1:25 in assay buffer resulting in a 4× concentrated solution.
To run the assay 5 μL of the above 4× concentrated compound solution (or 4% DMSO for positive controls) is added to the assay plate followed by 5 μL of a solution containing peptide (20 μM) and ATP (60 μM) in assay buffer. The reaction is initiated by the addition of 10 μL of RSK1 ([…]) or RSK2 ([…]) in assay buffer, or assay buffer alone for negative controls. The increase in fluorescence due to peptide phosphorylation is monitored continuously as a function of time using a Spectramax M5 plate reader (Molecular Devices) equipped with SoftMax Pro software.
The slopes from the linear portion of progress curves are used to determine IC50 values by non-linear curve-fitting to a four-parameter equation using GraphPad Prism (GraphPad Software, Inc.) or XLFit (IDBS). IC50's are determined in duplicate (n=2) and Ki values are calculated from IC50 values using the Cheng-Prusoff equation assuming a competitive mode of inhibition.

Assay [3] concerns the target T2, His-tagged full-length RSK2 (RPS6KA3) (Homo sapiens, UniProt P51812).
T2 construct: His-tagged full-length RSK2 (RPS6KA3, Invitrogen PV3323); His; purchased Invitrogen PV3323
Kind of assay: RSK2 Omnia Assay for compound IC50 determination. The format is biochemical. The following applies: ATP 15 μM, n=2, read-out: Mean RSK2 Biochem IC50. A digest of the protocol: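 Initial-rate slopes from continuous kinetic reads were fitted to a four-parameter equation for IC50 (n=2). Ki was then derived by Cheng-Prusoff assuming ATP-competitive inhibition. Reactions contained 15 μM ATP (Km 16.3 μM), 5 μM Omnia ST Peptide 6, and […] in 50 mM HEPES pH 7.5, 10 mM MgCl2, 1 mM DTT, 1% DMSO. Compounds spanned 11 threefold steps, […] final.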

T1 sequence (Q15418 whole entry): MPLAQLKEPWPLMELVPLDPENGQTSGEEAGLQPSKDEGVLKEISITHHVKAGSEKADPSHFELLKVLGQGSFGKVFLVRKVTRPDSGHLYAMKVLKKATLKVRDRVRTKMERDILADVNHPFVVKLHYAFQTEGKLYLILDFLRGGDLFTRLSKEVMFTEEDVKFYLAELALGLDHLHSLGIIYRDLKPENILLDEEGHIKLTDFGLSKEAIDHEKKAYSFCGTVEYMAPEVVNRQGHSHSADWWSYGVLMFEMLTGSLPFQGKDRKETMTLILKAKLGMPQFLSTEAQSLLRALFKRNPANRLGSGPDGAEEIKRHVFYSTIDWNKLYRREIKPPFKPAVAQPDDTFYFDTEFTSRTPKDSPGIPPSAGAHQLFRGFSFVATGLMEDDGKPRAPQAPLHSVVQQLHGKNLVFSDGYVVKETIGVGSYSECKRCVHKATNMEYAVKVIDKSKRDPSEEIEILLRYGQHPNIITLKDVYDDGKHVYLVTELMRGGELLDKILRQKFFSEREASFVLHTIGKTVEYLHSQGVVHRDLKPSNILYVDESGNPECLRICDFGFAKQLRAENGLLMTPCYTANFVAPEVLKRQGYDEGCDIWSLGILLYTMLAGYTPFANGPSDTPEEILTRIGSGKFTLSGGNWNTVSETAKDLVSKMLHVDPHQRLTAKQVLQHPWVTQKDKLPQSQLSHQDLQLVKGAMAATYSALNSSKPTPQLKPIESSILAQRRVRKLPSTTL
T2 sequence (P51812 whole entry): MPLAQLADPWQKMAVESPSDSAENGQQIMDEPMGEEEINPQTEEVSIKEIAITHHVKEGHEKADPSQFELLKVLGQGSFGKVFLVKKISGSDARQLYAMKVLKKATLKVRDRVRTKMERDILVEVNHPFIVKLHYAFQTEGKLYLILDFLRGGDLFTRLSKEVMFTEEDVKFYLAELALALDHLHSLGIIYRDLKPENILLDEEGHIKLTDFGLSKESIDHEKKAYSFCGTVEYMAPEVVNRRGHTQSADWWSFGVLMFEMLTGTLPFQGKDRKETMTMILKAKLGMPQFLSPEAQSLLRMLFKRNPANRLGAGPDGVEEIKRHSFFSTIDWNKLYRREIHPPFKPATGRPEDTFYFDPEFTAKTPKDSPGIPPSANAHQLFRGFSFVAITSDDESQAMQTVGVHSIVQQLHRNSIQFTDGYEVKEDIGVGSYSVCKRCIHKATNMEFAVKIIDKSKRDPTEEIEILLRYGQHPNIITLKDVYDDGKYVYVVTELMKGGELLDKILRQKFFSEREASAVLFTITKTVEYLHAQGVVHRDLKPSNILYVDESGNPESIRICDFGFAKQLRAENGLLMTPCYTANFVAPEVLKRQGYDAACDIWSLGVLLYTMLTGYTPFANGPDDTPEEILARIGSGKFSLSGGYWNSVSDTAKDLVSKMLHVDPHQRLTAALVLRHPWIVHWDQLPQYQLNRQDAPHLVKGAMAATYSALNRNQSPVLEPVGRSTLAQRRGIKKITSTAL

Consider `CC(C)CCN1c2nc(Nc3cc(F)c(O)c(F)c3)ncc2N(C)C(=O)C1C` (stereo not drawn) [BI-D1870], for which, in assay [1], the “inhibitor of RSK1-4” value is “potent inhibitor”.
In general, IC50 refers to the concentration that gives 50% inhibition. Take `C[C@@H]1C(=O)N(c2cccnc2)c2cnc(Nc3ccc4[nH]ncc4c3)nc2N1C1CCCCC1` [Example 23, (7R)-8-cyclohexyl-2-(1H-indazol-5-ylamino)-7-methyl-5-(pyridin-3-yl)-7,8-dihydropteridin-6(5H)-one]: the IC50 in assay [2] and in assay [3] was not above 0.1 µM throughout.
On to `C[C@@H]1C(=O)N(c2cccc(C#N)c2)c2cnc(Nc3ccc4[nH]ncc4c3)nc2N1C1CCCCC1` [Example 29, 3-[(7R)-8-cyclohexyl-2-(1H-indazol-5-ylamino)-7-methyl-6-oxo-7,8-dihydropteridin-5(6H)-yl]benzonitrile], for which the IC50 in assay [2] and in assay [3] was not above 0.1 µM each time.
`C[C@@H]1C(=O)N(c2ccsc2)c2cnc(Nc3ccc4[nH]ncc4c3)nc2N1C1CCCCC1` [Example 57, (7R)-8-cyclohexyl-2-(1H-indazol-5-ylamino)-7-methyl-5-(thiophen-3-yl)-7,8-dihydropteridin-6(5H)-one]: the IC50 in assay [2] and in assay [3] was not above 0.1 µM each time.
Regarding `C[C@@H]1C(=O)N(c2ccccc2)c2cnc(Nc3ccc4[nH]ncc4c3)nc2N1C1CCCC1` [Example 66, (7R)-8-cyclopentyl-2-(1H-indazol-5-ylamino)-7-methyl-5-phenyl-7,8-dihydropteridin-6(5H)-one], the IC50 in assay [2] and in assay [3] was not above 0.1 µM each time.
In the case of `CC[C@@H]1C(=O)N(c2ccc(N3CCOCC3)nc2)c2cnc(Nc3cc(F)c4[nH]ncc4c3)nc2N1C1CCCCC1` [compound 292, (7R)-8-cyclohexyl-7-ethyl-2-[(7-fluoro-1H-indazol-5-yl)amino]-5-[6-(morpholin-4-yl)pyridin-3-yl]-7,8-dihydropteridin-6(5H)-one], in assay [3], the half-maximal inhibitory concentration (IC50) is not above 0.1 µM.
For the compound `CC[C@@H]1C(=O)N(c2ccc(N(C)C)nc2)c2cnc(Nc3cc(F)c4[nH]ncc4c3)nc2N1C1CCCCC1` [compound 293, (7R)-8-cyclohexyl-5-[6-(dimethylamino)pyridin-3-yl]-7-ethyl-2-[(7-fluoro-1H-indazol-5-yl)amino]-7,8-dihydropteridin-6(5H)-one], the IC50 in assay [3] is not above 0.1 µM.
Same read-out and setting: the same measure for `CC[C@@H]1C(=O)N(c2ccc(OC)c(F)c2)c2cnc(Nc3cc(F)c4[nH]ncc4c3)nc2N1C1CCCCC1` [compound 294, (7R)-8-cyclohexyl-7-ethyl-2-[(7-fluoro-1H-indazol-5-yl)amino]-5-(3-fluoro-4-methoxyphenyl)-7,8-dihydropteridin-6(5H)-one]: not above 0.1 µM.
On the same count and under the same terms, the same measure for `CC[C@@H]1C(=O)N(c2cccc(C#N)c2)c2cnc(Nc3ccc4[nH]nc(F)c4c3)nc2N1C1CCCCC1` [compound 295, 3-[(7R)-8-cyclohexyl-7-ethyl-2-[(3-fluoro-1H-indazol-5-yl)amino]-6-oxo-7,8-dihydropteridin-5(6H)-yl]benzonitrile]: not above 0.1 µM; for `[2H]C1([2H])C(N2c3nc(Nc4cc(F)c5[nH]ncc5c4)ncc3N(c3ccc(OC)c(OC)c3)C(=O)[C@H]2C)C([2H])([2H])C([2H])([2H])C([2H])([2H])C1([2H])[2H]` [compound 300, (7R)-8-[(2,2,3,3,4,4,5,5,6,6-2H10)cyclohexyl]-5-(3,4-dimethoxyphenyl)-2-[(7-fluoro-1H-indazol-5-yl)amino]-7-methyl-7,8-dihydropteridin-6(5H)-one]: not above 0.1 µM.
As to `[2H]C1([2H])C(N2c3nc(Nc4cc(F)c5[nH]ncc5c4)ncc3N(c3cccnc3)C(=O)[C@H]2C)C([2H])([2H])C([2H])([2H])C([2H])([2H])C1([2H])[2H]` [compound 301, (7R)-8-[(2,2,3,3,4,4,5,5,6,6-2H10)cyclohexyl]-2-[(7-fluoro-1H-indazol-5-yl)amino]-7-methyl-5-(pyridin-3-yl)-7,8-dihydropteridin-6(5H)-one], the IC50 in assay [3] was not above 0.1 µM.
As for `[2H]C1([2H])C(N2c3nc(Nc4cc(F)c5[nH]ncc5c4)ncc3N(c3cccc(C#N)c3)C(=O)[C@H]2C)C([2H])([2H])C([2H])([2H])C([2H])([2H])C1([2H])[2H]` [compound 302, 3-[(7R)-8-[(2,2,3,3,4,4,5,5,6,6-2H10)cyclohexyl]-2-[(7-fluoro-1H-indazol-5-yl)amino]-7-methyl-6-oxo-7,8-dihydropteridin-5(6H)-yl]benzonitrile], the IC50 in assay [3] was not above 0.1 µM.
The same measure, in the same setting: the same measure for `C[C@@H]1C(=O)N(c2ccc[n+]([O-])c2)c2cnc(Nc3cc(F)c4[nH]ncc4c3)nc2N1C1CCC(C)(C)CC1` [compound 304, (7R)-8-(4,4-dimethylcyclohexyl)-2-[(7-fluoro-1H-indazol-5-yl)amino]-7-methyl-5-(1-oxidopyridin-3-yl)-7,8-dihydropteridin-6(5H)-one]: not above 0.1 µM.
For `COc1ccc(N2C(=O)[C@@H](C)N(C3CCC(=O)CC3)c3nc(Nc4cc(F)c5[nH]ncc5c4)ncc32)cc1OC` [compound 308, (7R)-5-(3,4-dimethoxyphenyl)-2-[(7-fluoro-1H-indazol-5-yl)amino]-7-methyl-8-(4-oxocyclohexyl)-7,8-dihydropteridin-6(5H)-one], in assay [3], the concentration for half-maximal inhibition (IC50) was not above 0.1 µM.
In the case of `C[C@@H]1C(=O)N(c2cccc(C#N)c2)c2cnc(Nc3ccc4[nH]ncc4c3)nc2N1[C@H]1CC[C@@H](O)CC1` [compound 309, 3-[(7R)-8-(cis-4-hydroxycyclohexyl)-2-(1H-indazol-5-ylamino)-7-methyl-6-oxo-7,8-dihydropteridin-5(6H)-yl]benzonitrile], the IC50 in assay [3] is more than 1 µM.
For “(7R)-8-cyclohexyl-2-(1H-indazol-5-ylamino)-7-methyl-5-[4-(morpholin-4-yl)phenyl]-7,8-dihydropteridin-6(5H)-one [compound 126]”, the IC50 in assay [3] is not above 0.1 µM.
On to “(7R)-8-cyclohexyl-2-[(7-fluoro-1H-indazol-5-yl)amino]-7-methyl-5-[4-(morpholin-4-yl)phenyl]-7,8-dihydropteridin-6(5H)-one [compound 134]”, for which the IC50 in assay [3] was not above 0.1 µM.
